The nature of series [1]: Half-life in the presence of total cell extract(TCE) was evaluated. The format is ADME.
The nature of series [2]: Lipophilicity of compound evaluated by HPLC retention time on reverse phase C18 column. The format is physicochemical.
Series [3] is described as follows: Half-life in the presence of pig liver esterase(PLE) was evaluated; […]. The following applies: in vitro. Type of series: ADME, Sus scrofa.
Series [4] in a line: Half-life in the presence of pig liver esterase(PLE) was evaluated. Type of series: ADME, tissue-based, Sus scrofa.

What is called half-life is the time in which the quantity being followed falls by half.

Structures are written as SMILES.

Regarding `Cc1cn([C@H]2C[C@H](OP(=O)(O)O)[C@@H](COP(=O)(OCCSC(=O)C(C)(C)C)O[C@H]3C[C@H](n4cc(C)c(=O)[nH]c4=O)O[C@@H]3COP(=O)(O)O[C@H]3C[C@H](n4cc(C)c(=O)[nH]c4=O)O[C@@H]3COP(=O)(OCCSC(=O)C(C)(C)C)O[C@H]3C[C@H](n4cc(C)c(=O)[nH]c4=O)O[C@@H]3COP(=O)(O)O[C@H]3C[C@H](n4cc(C)c(=O)[nH]c4=O)O[C@@H]3COP(=O)(OCCSC(=O)C(C)(C)C)O[C@H]3C[C@H](n4cc(C)c(=O)[nH]c4=O)O[C@@H]3COP(=O)(O)O[C@H]3C[C@H](n4cc(C)c(=O)[nH]c4=O)O[C@@H]3COP(=O)(OCCSC(=O)C(C)(C)C)O[C@H]3C[C@H](n4cc(C)c(=O)[nH]c4=O)O[C@@H]3COP(=O)(O)O[C@H]3C[C@H](n4cc(C)c(=O)[nH]c4=O)O[C@@H]3COP(=O)(OCCSC(=O)C(C)(C)C)O[C@H]3C[C@H](n4cc(C)c(=O)[nH]c4=O)O[C@@H]3COP(=O)(O)O[C@H]3C[C@H](n4cc(C)c(=O)[nH]c4=O)O[C@@H]3COP(=O)(OCCSC(=O)C(C)(C)C)O[C@H]3C[C@H](n4cc(C)c(=O)[nH]c4=O)O[C@@H]3CO)O2)c(=O)[nH]c1=O` (stereo not given in full), the half-life in series [1] was 1 h. Besides, the Retention time in series [2] stood at 48.8 min. Besides, the T1/2 result in series [3] is “Stable”.

With `Cc1cn([C@H]2C[C@H](OP(=O)(O)S)[C@@H](COP(=S)(OCCSC(=O)C(C)(C)C)O[C@H]3C[C@H](n4cc(C)c(=O)[nH]c4=O)O[C@@H]3COP(=O)(S)O[C@H]3C[C@H](n4cc(C)c(=O)[nH]c4=O)O[C@@H]3COP(=S)(OCCSC(=O)C(C)(C)C)O[C@H]3C[C@H](n4cc(C)c(=O)[nH]c4=O)O[C@@H]3COP(=O)(S)O[C@H]3C[C@H](n4cc(C)c(=O)[nH]c4=O)O[C@@H]3COP(=S)(OCCSC(=O)C(C)(C)C)O[C@H]3C[C@H](n4cc(C)c(=O)[nH]c4=O)O[C@@H]3COP(=O)(S)O[C@H]3C[C@H](n4cc(C)c(=O)[nH]c4=O)O[C@@H]3COP(=S)(OCCSC(=O)C(C)(C)C)O[C@H]3C[C@H](n4cc(C)c(=O)[nH]c4=O)O[C@@H]3COP(=O)(S)O[C@H]3C[C@H](n4cc(C)c(=O)[nH]c4=O)O[C@@H]3COP(=S)(OCCSC(=O)C(C)(C)C)O[C@H]3C[C@H](n4cc(C)c(=O)[nH]c4=O)O[C@@H]3COP(=O)(S)O[C@H]3C[C@H](n4cc(C)c(=O)[nH]c4=O)O[C@@H]3COP(=S)(OCCSC(=O)C(C)(C)C)O[C@H]3C[C@H](n4cc(C)c(=O)[nH]c4=O)O[C@@H]3CO)O2)c(=O)[nH]c1=O` (stereo not given in full), the half-life in series [1] was 17 h. The same compound had a Retention time in series [2] of 58.4 min. Besides, the T1/2 result in series [3] is on record as “Stable”.

Take `Cc1cn([C@H]2C[C@H](OP(=O)(O)S)[C@@H](COP(=O)(OCCSC(=O)C(C)(C)C)O[C@H]3C[C@H](n4cc(C)c(=O)[nH]c4=O)O[C@@H]3COP(=O)(S)O[C@H]3C[C@H](n4cc(C)c(=O)[nH]c4=O)O[C@@H]3COP(=O)(OCCSC(=O)C(C)(C)C)O[C@H]3C[C@H](n4cc(C)c(=O)[nH]c4=O)O[C@@H]3COP(=O)(S)O[C@H]3C[C@H](n4cc(C)c(=O)[nH]c4=O)O[C@@H]3COP(=O)(OCCSC(=O)C(C)(C)C)O[C@H]3C[C@H](n4cc(C)c(=O)[nH]c4=O)O[C@@H]3COP(=O)(S)O[C@H]3C[C@H](n4cc(C)c(=O)[nH]c4=O)O[C@@H]3COP(=O)(OCCSC(=O)C(C)(C)C)O[C@H]3C[C@H](n4cc(C)c(=O)[nH]c4=O)O[C@@H]3COP(=O)(S)O[C@H]3C[C@H](n4cc(C)c(=O)[nH]c4=O)O[C@@H]3COP(=O)(OCCSC(=O)C(C)(C)C)O[C@H]3C[C@H](n4cc(C)c(=O)[nH]c4=O)O[C@@H]3COP(=O)(S)O[C@H]3C[C@H](n4cc(C)c(=O)[nH]c4=O)O[C@@H]3COP(=O)(OCCSC(=O)C(C)(C)C)O[C@H]3C[C@H](n4cc(C)c(=O)[nH]c4=O)O[C@@H]3CO)O2)c(=O)[nH]c1=O` (stereo not given in full): the half-life in series [1] is 3 h. In series [2], this compound had a Retention time of 51.9 min. Moreover, in series [3], the T1/2 result is on record as “Stable”.

`Cc1cn([C@H]2C[C@H](OP(=O)(O)OC[C@H]3O[C@@H](n4cc(C)c(=O)[nH]c4=O)C[C@@H]3OP(=S)(OCCSC(=O)C(C)(C)C)OC[C@H]3O[C@@H](n4cc(C)c(=O)[nH]c4=O)C[C@@H]3OP(=O)(O)OC[C@H]3O[C@@H](n4cc(C)c(=O)[nH]c4=O)C[C@@H]3OP(=S)(OCCSC(=O)C(C)(C)C)OC[C@H]3O[C@@H](n4cc(C)c(=O)[nH]c4=O)C[C@@H]3OP(=O)(O)OC[C@H]3O[C@@H](n4cc(C)c(=O)[nH]c4=O)C[C@@H]3OP(=S)(OCCSC(=O)C(C)(C)C)OC[C@H]3O[C@@H](n4cc(C)c(=O)[nH]c4=O)C[C@@H]3OP(=O)(O)OC[C@H]3O[C@@H](n4cc(C)c(=O)[nH]c4=O)C[C@@H]3OP(=S)(OCCSC(=O)C(C)(C)C)OC[C@H]3O[C@@H](n4cc(C)c(=O)[nH]c4=O)C[C@@H]3OP(=O)(O)OC[C@H]3O[C@@H](n4cc(C)c(=O)[nH]c4=O)C[C@@H]3OP(=S)(OCCSC(=O)C(C)(C)C)OC[C@H]3O[C@@H](n4cc(C)c(=O)[nH]c4=O)C[C@@H]3OP(=O)(O)OC[C@H]3O[C@@H](n4cc(C)c(=O)[nH]c4=O)C[C@@H]3OP(O)(=S)OCCSC(=O)C(C)(C)C)[C@@H](CO)O2)c(=O)[nH]c1=O` (stereo not given in full): the half-life in series [1] is 2.5 h. This compound also came in with a Retention time in series [2] of 51.7 min. Also, the T1/2 entry in series [3] was “Stable”.

Regarding `CO[C@@H]1[C@H](OP(=O)(O)O)[C@@H](COP(=O)(O)O[C@H]2[C@@H](OC)[C@H](n3ccc(=O)[nH]c3=O)O[C@@H]2COP(=O)(O)O[C@H]2[C@@H](OC)[C@H](n3ccc(=O)[nH]c3=O)O[C@@H]2COP(=O)(OCCSC(=O)C(C)(C)C)O[C@H]2C[C@H](n3cc(C)c(=O)[nH]c3=O)O[C@@H]2COP(=O)(OCCSC(=O)C(C)(C)C)O[C@H]2C[C@H](n3cc(C)c(=O)[nH]c3=O)O[C@@H]2COP(=O)(OCCSC(=O)C(C)(C)C)O[C@H]2C[C@H](n3cc(C)c(=O)[nH]c3=O)O[C@@H]2COP(=O)(OCCSC(=O)C(C)(C)C)O[C@H]2C[C@H](n3cc(C)c(=O)[nH]c3=O)O[C@@H]2COP(=O)(OCCSC(=O)C(C)(C)C)O[C@H]2C[C@H](n3cc(C)c(=O)[nH]c3=O)O[C@@H]2COP(=O)(OCCSC(=O)C(C)(C)C)O[C@H]2C[C@H](n3cc(C)c(=O)[nH]c3=O)O[C@@H]2COP(=O)(O)O[C@H]2[C@@H](OC)[C@H](n3cc(C)c(=O)[nH]c3=O)O[C@@H]2COP(=O)(O)O[C@H]2[C@@H](OC)[C@H](n3ccc(=O)[nH]c3=O)O[C@@H]2COP(=O)(O)O[C@H]2[C@@H](OC)[C@H](n3ccc(=O)[nH]c3=O)O[C@@H]2CO)O[C@H]1n1ccc(=O)[nH]c1=O` (stereo not given in full), the half-life in series [1] was 0.25 h; in series [4], 5 min. This compound displayed a Retention time in series [2] of 54.7 min.

(Values after ChEMBL document CHEMBL1131398, “First synthesis of alternating SATE-phosphotriester/phosphodiester prooligonucleotides on solid support” (Bioorg Med Chem Lett, 1998).)
